Data on 2 substances can be found in patent US12138625B2, “Screening kit and method” (CELLPLY S.R.L., priority 2016, dated 2024).

For one assay, the system named is SU-DHL-4 cancer cells. As to the kind of experiment: open well assay of Rituximab on SU-DHL-4 lymphoma cells (Calcein-AM / PI, time-lapse). Type of assay: cell-based. As to conditions: Rituximab 10 μg/mL, human serum 1%, PI 5 μM; versus CTRL; FIG. 11A. On the procedure: Cells: SU-DHL-4 lymphoma cells and Raji cells were used (ATCC CCL-86). 3·10^5 cells/mL were cultured in RPMI medium supplemented with 10% FBS, 1% […]/streptomycin at 37° C., 95% RH, 5% CO2. The cells were amplified, dividing them when in confluence. PBMC were isolated from blood by centrifugation in gradient. Whole blood from healthy donors was collected into tubes treated with anticoagulants according to the directive “ethical principles and guidelines for the protection of humans in research”. Isolated PBMC were washed twice with 10 mL cold HBSS after lysis of red blood cells. The concentration of cells and their viability was determined with Trypan Blue on haemocytometer. The concentration was adjusted to 1 million cells/mL.
Different batches of SU-DHL-4 or Raji cells were harvested at the peak of their growth, washed with PBS and counted in a hemocytometer with Trypan Blue. The cell concentration was adjusted to 1 million cells/mL and they were labeled with Calcein AM (CAM) 5 nM for flow cytometry and 250 nM for the assay according to the present invention. […] Cell viability was finally assessed by PI and flow cytometry. […]
The images were acquired in brightfield (BF) to evaluate the morphological characteristics and then in fluorescence to evaluate the signal in DAPI bands (ex: 360/40 nm, em: 460/50 nm), FITC (ex: 480/30 nm, em: 535/40 nm), TRITC (ex: 540/25 nm, em: 605/55 nm). […]

For a further assay, the system named is Jurkat cells. As to the kind of experiment: calcium signal (Fluo-4) of Jurkat cells after stimulation in open microwells. Type of assay: cell-based, human. The following applies: Fluo-4 fluorescence, OKT3 10 μg/mL, average of a series of 3 experiments. On the procedure:
Cells from the Jurkat cell line (human Leukemic T cells) were obtained from ATCC and cultured in RPMI 1640 medium supplemented with 10% inactivated FBS medium, 10 mM Hepes, 2 mM Ultraglutamine and 1 mM sodium pyruvate, 1% Penicillin/Streptomycin in 25 cm^2 flasks at 37° C. and 5% CO2.
The OKT3 hybridomas were cultured in bioreactors (CellLine, Integra Biosciences) in complete RPMI 1640 medium containing 3% FBS and the supernatant was collected 2 times a week. The purification of monoclonal antibodies was performed using a double saturated ammonium sulfate precipitation at 30% and 50%, followed by dialysis in PBS. The purity of OKT3 was assessed by SDS-PAGE gel and the amount of antibody was determined through NanoDrop (Thermo Scientific). The antibody was then frozen at −80° C. before use.
For the assay in open microwells according to the present invention, Jurkat cells were labeled with Fluo-4 20 μM in HBSS, centrifuged and resuspended in serum-free medium (RPMI 1640 with 25 mM Hepes or HBSS) at a concentration of 1.6×10^6 cells/mL in 1.5 mL Eppendorf tubes used as input reservoirs for the open reversed microwell system. […] The images were acquired by a camera connected to the microscope at a distance of 1 minute and processed by software developed in LabView, quantifying the dynamic performance of the same signal on each sample cell.

In the case of RTX: monoclonal antibody Rituximab, in the assay on SU-DHL-4 cancer cells, the “dead cells (PI, TRITC channel) in time-lapse images” value was “present only at T2 and T3 in the RTX group”. As to “OKT3: monoclonal antibody purified from OKT3 hybridoma supernatant”, the “increase of the signal peak, compared to the baseline value” with Jurkat cells is recorded as 178%+/−90%.
